Test results reported in BindingDB's records for doi:10.1021/jm0503244 (Merck Research Laboratories, 2005).
pIC50: −log10 of the molar value.

Assays:
Experiment in all cases: S1P Receptor Binding Assay
[1] = target: Sphingosine 1-phosphate receptor 3 (Homo sapiens, UniProt Q99500); conditions: pH 7.5; 22 °C
Protocol: (§1) The assay measures the displacement of [33P]-labeled sphingosine-1-phosphate (S1P) by test compounds from human S1P receptors expressed on CHO cell membranes. Binding was performed for 60 min at room temperature and terminated by collecting the membranes onto GF/B filter plates with a Packard Filtermate Universal Harvester. Filter bound radionuclide was measured on a PerkinElmer 1450 MicroBeta. Specific binding was calculated by subtracting radioactivity that remained in the presence of 1000-fold excess of unlabeled S1P.

[2] = target: Sphingosine 1-phosphate receptor 5 (Homo sapiens, UniProt Q9H228); conditions: 25 °C
Protocol: as §1

[3] = target: T1, Sphingosine 1-phosphate receptor 4 (Homo sapiens, UniProt O95977); conditions: 25 °C
T1 sequence (O95977 whole entry): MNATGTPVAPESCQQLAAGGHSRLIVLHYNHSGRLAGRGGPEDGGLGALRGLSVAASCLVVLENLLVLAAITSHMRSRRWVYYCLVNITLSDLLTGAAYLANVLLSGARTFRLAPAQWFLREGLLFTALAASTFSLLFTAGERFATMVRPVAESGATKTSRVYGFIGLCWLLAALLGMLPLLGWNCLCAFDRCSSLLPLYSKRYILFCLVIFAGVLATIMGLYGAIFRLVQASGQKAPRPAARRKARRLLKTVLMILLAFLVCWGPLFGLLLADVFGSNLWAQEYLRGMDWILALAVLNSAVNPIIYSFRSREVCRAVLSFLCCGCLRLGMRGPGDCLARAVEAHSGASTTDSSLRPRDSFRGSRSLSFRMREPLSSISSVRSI
Protocol: as §1

Chain of Sphingosine 1-phosphate receptor 3 (Q99500 whole entry): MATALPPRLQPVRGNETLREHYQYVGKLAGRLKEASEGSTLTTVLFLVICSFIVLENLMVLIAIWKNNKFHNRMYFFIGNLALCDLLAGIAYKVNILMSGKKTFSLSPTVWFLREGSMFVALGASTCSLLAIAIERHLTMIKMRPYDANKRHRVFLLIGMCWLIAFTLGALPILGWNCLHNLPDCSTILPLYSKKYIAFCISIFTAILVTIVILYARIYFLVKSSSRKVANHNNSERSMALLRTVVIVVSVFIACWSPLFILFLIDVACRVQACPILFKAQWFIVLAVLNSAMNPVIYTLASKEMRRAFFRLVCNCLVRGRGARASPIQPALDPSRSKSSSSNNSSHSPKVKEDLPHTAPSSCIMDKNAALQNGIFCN
Chain of Sphingosine 1-phosphate receptor 5 (Q9H228 whole entry): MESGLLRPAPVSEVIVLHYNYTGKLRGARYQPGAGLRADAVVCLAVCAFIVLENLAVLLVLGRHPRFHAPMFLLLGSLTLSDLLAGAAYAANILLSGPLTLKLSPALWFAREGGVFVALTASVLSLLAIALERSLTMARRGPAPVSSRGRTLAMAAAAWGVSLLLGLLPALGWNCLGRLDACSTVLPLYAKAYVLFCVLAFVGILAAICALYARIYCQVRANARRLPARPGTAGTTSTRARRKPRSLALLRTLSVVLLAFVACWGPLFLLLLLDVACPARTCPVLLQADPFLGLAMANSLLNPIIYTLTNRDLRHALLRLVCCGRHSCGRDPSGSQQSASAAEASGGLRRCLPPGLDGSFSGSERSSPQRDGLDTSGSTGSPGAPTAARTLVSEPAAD

| pIC50 [1] | pIC50 [2] | pIC50 [3] | Compound |
| --- | --- | --- | --- |
| 5.00 | – | – | CC(C)(C)Cc1ccc(-c2nc(-c3ccc(CN4CC(C(=O)O)C4)cc3)no2)cc1 [1-[(4-{5-[4-(2,2-dimethylpropyl)phenyl]-1,2,4-oxadiazol-3-yl}phenyl)methyl]azetidine-3-carboxylic acid] |
| – | 8.62 | 6.46 | CCCCc1ccc(-c2nc(-c3ccc(CN4CC(C(=O)O)C4)cc3)no2)cc1 [1-({4-[5-(4-butylphenyl)-1,2,4-oxadiazol-3-yl]phenyl}methyl)azetidine-3-carboxylic acid] |
| 5.51 | – | – | CCC(C)(C)c1ccc(-c2nc(-c3ccc(CN4CC(C(=O)O)C4)cc3)no2)cc1 [1-[(4-{5-[4-(2-methylbutan-2-yl)phenyl]-1,2,4-oxadiazol-3-yl}phenyl)methyl]azetidine-3-carboxylic acid] |
